Measured values published in PMC4577729, “7-(Pyrazol-4-yl)-3H-imidazo[4,5-b]pyridine-based derivatives for kinase inhibition: Co-crystallisation studies with Aurora-A reveal distinct differences in the orientation of the pyrazole N1-substituent” (Bioorganic & Medicinal Chemistry Letters, 2015).

Columns and labels:
CAMKKb = CAMKKb (Homo sapiens, UniProt Q96RR4); test: Kinase selectivity profiling; type: biochemical; conditions: 1 µM, assay duplicates
Procedure: (§1) [20] Kinase selectivity profiling for compounds 7a, 7d, 14d and 14g was carried out at the International Centre for Protein Kinase Profiling, Division of Signal Transduction Therapy, University of Dundee.
(§2) Table S1: Kinase selectivity profiling of compounds 7a and 7d in a 102-kinase panel screened at a concentration of 1 µM.
(§3) Table S2: Kinase selectivity profiling of compounds 14d and 14g in a 105-kinase panel screened at a concentration of 1 µM.

CK2 = CK2 (Homo sapiens, UniProt P68400); test: Kinase selectivity profiling; type: biochemical; conditions: 1 µM, assay duplicates
Procedure: as §1, §2, §3

MARK1 = MARK1 (Homo sapiens, UniProt Q9P0L2); test: Kinase selectivity profiling; type: biochemical; conditions: 1 µM, assay duplicates
Procedure: as §1, §2, §3

MST2 = MST2 (Homo sapiens, UniProt Q13188); test: Kinase selectivity profiling; type: biochemical; conditions: 1 µM, assay duplicates
Procedure: as §1, §2, §3

PDK1 = PDK1 (Homo sapiens, UniProt O15530); test: Kinase selectivity profiling; type: biochemical; conditions: 1 µM, assay duplicates
Procedure: as §1, §2, §3

Lck = Lck (Homo sapiens, UniProt P06239); test: Kinase selectivity profiling; type: biochemical; conditions: 1 µM, assay duplicates
Procedure: as §1, §2, §3

PAK2 = PAK2 (Homo sapiens, UniProt Q13177); test: Kinase selectivity profiling; type: biochemical; conditions: 1 µM, assay duplicates
Procedure: as §1, §2, §3

GSK3b = GSK3b (Homo sapiens, UniProt P49841); test: Kinase selectivity profiling; type: biochemical; conditions: for GSK3b % activity remaining: 1 µM, assay duplicates
Procedure: as §1, §2, §3

PKBa = PKBa (Homo sapiens, UniProt P31749); test: Kinase selectivity profiling; type: biochemical; conditions: 1 µM, assay duplicates
Procedure: as §1, §2, §3

NUAK1 = NUAK1 (Homo sapiens, UniProt O60285); test: Kinase selectivity profiling; type: biochemical; conditions: 1 µM, assay duplicates
Procedure: as §1, §2, §3

TTK = TTK (Homo sapiens, UniProt P33981); test: Kinase selectivity profiling; type: biochemical; conditions: 1 µM, assay duplicates
Procedure: as §1, §2, §3

EPH-A2 = EPH-A2 (Homo sapiens, UniProt P29317); test: Kinase selectivity profiling; type: biochemical; conditions: 1 µM, assay duplicates
Procedure: as §1, §2, §3

Src = Src (Homo sapiens, UniProt P12931); test: Kinase selectivity profiling; type: biochemical; conditions: 1 µM, assay duplicates
Procedure: as §1, §2, §3

MAPKAP-K2 = MAPKAP-K2 (Homo sapiens, UniProt P49137); test: Kinase selectivity profiling; type: biochemical; conditions: 1 µM, assay duplicates
Procedure: as §1, §2, §3

p38b MAPK = p38b MAPK (Homo sapiens, UniProt Q15759); test: Kinase selectivity profiling; type: biochemical; conditions: 1 µM, assay duplicates
Procedure: as §1, §2, §3

IRR = IRR (Homo sapiens, UniProt P14616); test: Kinase selectivity profiling; type: biochemical; conditions: 1 µM, assay duplicates
Procedure: as §1, §2, §3

HIPK1 = HIPK1 (Homo sapiens, UniProt Q86Z02); test: Kinase selectivity profiling; type: biochemical; conditions: 1 µM, assay duplicates
Procedure: as §1, §2, §3

ERK1 = ERK1 (Homo sapiens, UniProt P27361); test: Kinase selectivity profiling; type: biochemical; conditions: 1 µM, assay duplicates
Procedure: as §1, §2, §3

DYRK2 = DYRK2 (Homo sapiens, UniProt Q92630); test: Kinase selectivity profiling; type: biochemical; conditions: 1 µM, assay duplicates
Procedure: as §1, §2, §3

BRSK1 = BRSK1 (Homo sapiens, UniProt Q8TDC3); test: Kinase selectivity profiling; type: biochemical; conditions: 1 µM, assay duplicates
Procedure: as §1, §2, §3

MARK2 = MARK2 (Homo sapiens, UniProt Q7KZI7); test: Kinase selectivity profiling; type: biochemical; conditions: 1 µM, assay duplicates
Procedure: as §1, §2, §3

PKBb = PKBb (Homo sapiens, UniProt P31751); test: Kinase selectivity profiling; type: biochemical; conditions: 1 µM, assay duplicates
Procedure: as §1, §2, §3

SGK1 = SGK1 (Homo sapiens, UniProt O00141); test: Kinase selectivity profiling; type: biochemical; conditions: 1 µM, assay duplicates
Procedure: as §1, §2, §3

ROCK 2 = ROCK 2 (Homo sapiens, UniProt O75116); test: Kinase selectivity profiling; type: biochemical; conditions: 1 µM, assay duplicates
Procedure: as §1, §2, §3

CSK = CSK (Homo sapiens, UniProt P41240); test: Kinase selectivity profiling; type: biochemical; conditions: 1 µM, assay duplicates
Procedure: as §1, §2, §3

MLK3 = MLK3 (Homo sapiens, UniProt Q16584); test: Kinase selectivity profiling; type: biochemical; conditions: 1 µM, assay duplicates
Procedure: as §1, §2, §3

TBK1 = TBK1 (Homo sapiens, UniProt Q9UHD2); test: Kinase selectivity profiling; type: biochemical; conditions: 1 µM, assay duplicates
Procedure: as §1, §2, §3

EPH-B3 = EPH-B3 (Homo sapiens, UniProt P54753); test: Kinase selectivity profiling; type: biochemical; conditions: 1 µM, assay duplicates
Procedure: as §1, §2, §3

JNK2 = JNK2 (Homo sapiens, UniProt P45984); test: Kinase selectivity profiling; type: biochemical; conditions: 1 µM, assay duplicates
Procedure: as §1, §2, §3

ERK8 = target: T1, ERK8 (Homo sapiens, UniProt Q8TD08); test: Kinase selectivity profiling; type: biochemical; conditions: for ERK8 inhibition: 1 μM; for ERK8 % activity remaining: 1 µM, assay duplicates
T1 sequence (Q8TD08 1-544): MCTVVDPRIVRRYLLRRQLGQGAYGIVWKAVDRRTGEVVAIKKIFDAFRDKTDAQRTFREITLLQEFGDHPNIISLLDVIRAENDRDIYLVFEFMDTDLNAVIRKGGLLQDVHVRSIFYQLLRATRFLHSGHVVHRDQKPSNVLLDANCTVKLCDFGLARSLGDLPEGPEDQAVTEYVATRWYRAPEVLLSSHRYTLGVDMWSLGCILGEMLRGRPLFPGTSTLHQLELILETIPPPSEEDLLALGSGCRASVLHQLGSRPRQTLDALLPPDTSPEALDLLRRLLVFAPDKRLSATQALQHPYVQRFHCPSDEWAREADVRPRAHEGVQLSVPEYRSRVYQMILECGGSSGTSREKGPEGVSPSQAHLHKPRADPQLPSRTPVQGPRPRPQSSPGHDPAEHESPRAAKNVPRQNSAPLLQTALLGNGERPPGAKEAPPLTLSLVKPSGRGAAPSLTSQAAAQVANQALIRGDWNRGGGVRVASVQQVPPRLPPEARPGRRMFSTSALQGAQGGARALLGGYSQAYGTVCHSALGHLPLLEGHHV
Procedure: as §1, §2, §3

PHK = PHK (Homo sapiens, UniProt Q16816); test: Kinase selectivity profiling; type: biochemical; conditions: 1 µM, assay duplicates
Procedure: as §1, §2, §3

[1] = Mouse liver microsomal stability; type: in vitro ADME; conditions: percentage of compound metabolised after a 30 min incubation, mouse liver microsomes
Procedure: [18] MLM and HLM microsomal stabilities were determined as described in Ref. [12].

Sequence of GSK3b (P49841 whole entry): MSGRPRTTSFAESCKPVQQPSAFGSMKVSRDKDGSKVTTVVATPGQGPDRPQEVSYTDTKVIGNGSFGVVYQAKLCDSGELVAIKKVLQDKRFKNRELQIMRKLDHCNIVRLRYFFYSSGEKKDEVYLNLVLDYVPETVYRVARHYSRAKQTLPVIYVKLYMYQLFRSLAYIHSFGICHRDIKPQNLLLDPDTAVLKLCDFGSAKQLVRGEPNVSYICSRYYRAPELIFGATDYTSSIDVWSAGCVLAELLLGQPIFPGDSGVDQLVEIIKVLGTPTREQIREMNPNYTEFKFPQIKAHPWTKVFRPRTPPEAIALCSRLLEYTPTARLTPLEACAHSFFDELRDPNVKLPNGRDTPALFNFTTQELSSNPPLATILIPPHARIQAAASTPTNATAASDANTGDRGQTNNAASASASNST
Sequence of ERK1 (P27361 whole entry): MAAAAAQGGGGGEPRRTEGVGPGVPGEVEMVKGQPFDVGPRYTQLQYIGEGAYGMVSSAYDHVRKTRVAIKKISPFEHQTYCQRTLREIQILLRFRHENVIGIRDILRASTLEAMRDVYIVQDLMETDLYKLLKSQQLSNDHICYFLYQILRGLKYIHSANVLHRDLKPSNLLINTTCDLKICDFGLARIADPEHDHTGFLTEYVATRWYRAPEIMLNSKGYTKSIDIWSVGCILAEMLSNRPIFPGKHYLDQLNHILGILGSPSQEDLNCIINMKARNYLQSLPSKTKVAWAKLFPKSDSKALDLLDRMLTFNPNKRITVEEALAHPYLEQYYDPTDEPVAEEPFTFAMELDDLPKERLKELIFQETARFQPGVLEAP
Sequence of CSK (P41240 whole entry): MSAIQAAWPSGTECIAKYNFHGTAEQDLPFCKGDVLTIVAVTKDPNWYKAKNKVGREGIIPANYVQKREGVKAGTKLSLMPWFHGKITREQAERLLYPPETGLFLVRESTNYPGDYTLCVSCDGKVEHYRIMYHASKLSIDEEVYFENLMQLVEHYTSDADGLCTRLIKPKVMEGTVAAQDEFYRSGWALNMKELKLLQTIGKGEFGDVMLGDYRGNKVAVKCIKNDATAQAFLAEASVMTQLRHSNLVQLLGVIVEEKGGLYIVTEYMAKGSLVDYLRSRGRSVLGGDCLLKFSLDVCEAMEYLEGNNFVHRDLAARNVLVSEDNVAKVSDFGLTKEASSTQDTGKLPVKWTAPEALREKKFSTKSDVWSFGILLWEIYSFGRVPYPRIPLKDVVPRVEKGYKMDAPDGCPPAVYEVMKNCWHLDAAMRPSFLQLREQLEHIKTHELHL
Sequence of p38b MAPK (Q15759 whole entry): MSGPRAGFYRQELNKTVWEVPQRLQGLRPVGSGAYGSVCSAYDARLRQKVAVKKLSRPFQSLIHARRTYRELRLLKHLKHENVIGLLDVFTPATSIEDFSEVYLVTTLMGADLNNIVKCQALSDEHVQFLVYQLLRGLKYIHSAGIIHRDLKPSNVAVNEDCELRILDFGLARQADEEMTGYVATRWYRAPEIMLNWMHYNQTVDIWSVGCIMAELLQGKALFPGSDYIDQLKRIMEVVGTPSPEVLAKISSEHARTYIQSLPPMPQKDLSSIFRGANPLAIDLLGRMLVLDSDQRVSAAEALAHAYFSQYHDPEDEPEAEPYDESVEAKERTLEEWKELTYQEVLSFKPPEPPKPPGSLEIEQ
Sequence of PDK1 (O15530 whole entry): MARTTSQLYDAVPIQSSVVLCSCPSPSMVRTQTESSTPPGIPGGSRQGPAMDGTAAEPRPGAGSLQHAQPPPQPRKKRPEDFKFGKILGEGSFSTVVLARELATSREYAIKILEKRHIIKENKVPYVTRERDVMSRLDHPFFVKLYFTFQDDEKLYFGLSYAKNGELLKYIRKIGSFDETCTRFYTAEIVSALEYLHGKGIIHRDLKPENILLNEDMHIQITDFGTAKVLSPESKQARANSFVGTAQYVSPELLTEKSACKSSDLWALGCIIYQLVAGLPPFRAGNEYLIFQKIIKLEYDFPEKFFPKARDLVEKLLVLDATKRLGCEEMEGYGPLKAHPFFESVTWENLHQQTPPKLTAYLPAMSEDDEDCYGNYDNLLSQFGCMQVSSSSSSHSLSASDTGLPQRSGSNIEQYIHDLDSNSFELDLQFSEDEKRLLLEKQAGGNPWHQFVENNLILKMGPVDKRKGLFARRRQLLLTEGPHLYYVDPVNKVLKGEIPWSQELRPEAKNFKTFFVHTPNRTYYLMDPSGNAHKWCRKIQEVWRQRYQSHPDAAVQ
Sequence of DYRK2 (Q92630 whole entry): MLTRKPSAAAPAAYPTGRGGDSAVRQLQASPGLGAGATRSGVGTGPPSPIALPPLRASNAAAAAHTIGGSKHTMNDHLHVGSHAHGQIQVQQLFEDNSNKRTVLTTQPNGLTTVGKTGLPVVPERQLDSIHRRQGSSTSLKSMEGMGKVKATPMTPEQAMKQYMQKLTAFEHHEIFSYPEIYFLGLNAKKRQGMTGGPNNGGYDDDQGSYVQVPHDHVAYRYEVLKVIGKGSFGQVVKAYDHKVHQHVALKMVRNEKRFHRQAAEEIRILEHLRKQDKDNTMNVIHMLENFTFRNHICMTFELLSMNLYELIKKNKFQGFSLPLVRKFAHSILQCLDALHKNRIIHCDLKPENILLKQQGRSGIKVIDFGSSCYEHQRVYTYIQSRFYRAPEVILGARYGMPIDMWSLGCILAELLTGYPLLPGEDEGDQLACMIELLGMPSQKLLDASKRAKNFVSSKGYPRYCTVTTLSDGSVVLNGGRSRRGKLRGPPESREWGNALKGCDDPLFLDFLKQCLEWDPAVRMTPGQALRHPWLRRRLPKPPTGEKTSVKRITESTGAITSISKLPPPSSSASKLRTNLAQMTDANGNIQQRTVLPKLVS
Sequence of NUAK1 (O60285 whole entry): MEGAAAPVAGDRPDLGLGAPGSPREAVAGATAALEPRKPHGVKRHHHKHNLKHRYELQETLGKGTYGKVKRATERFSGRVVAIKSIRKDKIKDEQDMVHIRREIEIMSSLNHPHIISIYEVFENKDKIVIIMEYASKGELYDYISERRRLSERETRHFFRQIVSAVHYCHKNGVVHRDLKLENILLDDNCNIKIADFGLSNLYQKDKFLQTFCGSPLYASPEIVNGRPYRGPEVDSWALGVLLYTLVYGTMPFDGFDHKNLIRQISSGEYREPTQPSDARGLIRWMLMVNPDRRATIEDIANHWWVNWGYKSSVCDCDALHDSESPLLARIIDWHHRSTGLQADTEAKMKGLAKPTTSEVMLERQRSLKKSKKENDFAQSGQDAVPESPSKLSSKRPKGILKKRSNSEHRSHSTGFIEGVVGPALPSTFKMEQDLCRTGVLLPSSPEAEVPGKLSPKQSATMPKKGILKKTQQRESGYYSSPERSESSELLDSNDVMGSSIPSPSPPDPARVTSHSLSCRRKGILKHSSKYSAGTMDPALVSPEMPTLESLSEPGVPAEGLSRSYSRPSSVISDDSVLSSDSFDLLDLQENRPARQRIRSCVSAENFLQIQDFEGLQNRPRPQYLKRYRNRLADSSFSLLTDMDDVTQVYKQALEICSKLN
Sequence of MST2 (Q13188 whole entry): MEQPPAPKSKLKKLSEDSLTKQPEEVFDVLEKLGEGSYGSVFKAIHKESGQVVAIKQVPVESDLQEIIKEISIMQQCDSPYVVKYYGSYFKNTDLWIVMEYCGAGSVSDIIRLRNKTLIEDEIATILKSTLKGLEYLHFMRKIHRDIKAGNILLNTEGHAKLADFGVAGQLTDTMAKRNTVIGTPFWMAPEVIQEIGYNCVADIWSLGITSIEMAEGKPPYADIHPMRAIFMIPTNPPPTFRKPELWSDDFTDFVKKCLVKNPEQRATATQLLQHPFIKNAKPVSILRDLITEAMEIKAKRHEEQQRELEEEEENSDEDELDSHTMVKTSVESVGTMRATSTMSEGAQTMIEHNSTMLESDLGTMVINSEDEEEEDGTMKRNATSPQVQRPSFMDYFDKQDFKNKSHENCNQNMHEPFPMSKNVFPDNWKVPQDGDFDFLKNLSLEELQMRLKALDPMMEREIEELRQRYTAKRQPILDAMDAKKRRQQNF
Sequence of BRSK1 (Q8TDC3 whole entry): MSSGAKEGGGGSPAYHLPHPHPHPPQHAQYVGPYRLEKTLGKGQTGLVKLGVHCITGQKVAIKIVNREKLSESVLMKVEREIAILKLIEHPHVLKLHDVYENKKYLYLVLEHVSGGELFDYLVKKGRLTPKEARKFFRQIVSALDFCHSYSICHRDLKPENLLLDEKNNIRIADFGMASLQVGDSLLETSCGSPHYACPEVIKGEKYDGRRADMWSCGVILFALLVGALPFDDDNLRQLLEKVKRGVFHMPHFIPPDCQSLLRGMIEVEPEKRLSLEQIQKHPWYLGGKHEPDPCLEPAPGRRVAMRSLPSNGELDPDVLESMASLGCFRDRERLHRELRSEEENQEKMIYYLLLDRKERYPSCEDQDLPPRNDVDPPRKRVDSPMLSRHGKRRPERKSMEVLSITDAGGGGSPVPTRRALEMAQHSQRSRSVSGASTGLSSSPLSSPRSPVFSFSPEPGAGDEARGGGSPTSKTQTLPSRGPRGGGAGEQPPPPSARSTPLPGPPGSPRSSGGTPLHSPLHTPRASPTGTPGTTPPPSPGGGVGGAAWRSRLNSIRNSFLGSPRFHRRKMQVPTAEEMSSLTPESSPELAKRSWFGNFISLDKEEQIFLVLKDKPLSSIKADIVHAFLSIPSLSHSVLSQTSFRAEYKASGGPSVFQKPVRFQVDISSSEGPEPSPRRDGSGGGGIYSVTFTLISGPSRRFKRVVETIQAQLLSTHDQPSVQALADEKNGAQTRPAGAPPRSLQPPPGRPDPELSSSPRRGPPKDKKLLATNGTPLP

## Cc1nn(C)cc1-c1nc2c(-c3cnn(Cc4ccccc4)c3)c(Cl)cnc2[nH]1 [Compound 7a]
CAMKKb
  CAMKKb % activity remaining: 19%
CK2
  CK2 % activity remaining: 62%
MARK1
  MARK1 % activity remaining: 31%
MST2
  MST2 % activity remaining: 60%
PDK1
  PDK1 % activity remaining: 52%
Lck
  Lck % activity remaining: 61%
PAK2
  PAK2 % activity remaining: 82%
GSK3b; 1 μM
  GSK3β inhibition: greater than 80%
GSK3b
  GSK3b % activity remaining: 2%
PKBa
  PKBa % activity remaining: 70%
NUAK1
  NUAK1 % activity remaining: 1%
TTK
  TTK % activity remaining: 29%
EPH-A2
  EPH-A2 % activity remaining: 70%
Src
  Src % activity remaining: 9%
MAPKAP-K2
  MAPKAP-K2 % activity remaining: 84%
p38b MAPK
  p38b MAPK % activity remaining: 91%
IRR
  IRR % activity remaining: 20%
HIPK1
  HIPK1 % activity remaining: 3%
ERK1
  ERK1 % activity remaining: 28%
DYRK2
  DYRK2 % activity remaining: 29%
BRSK1
  BRSK1 % activity remaining: 36%
MARK2
  MARK2 % activity remaining: 31%
PKBb
  PKBb % activity remaining: 62%
SGK1
  SGK1 % activity remaining: 56%
ROCK 2
  ROCK 2 % activity remaining: 36%
CSK
  CSK % activity remaining: 59%
MLK3
  MLK3 % activity remaining: 2%
TBK1
  TBK1 % activity remaining: 24%
EPH-B3
  EPH-B3 % activity remaining: 99%
JNK2
  JNK2 % activity remaining: 17%
ERK8
  ERK8 inhibition: greater than 80%
  ERK8 % activity remaining: 6%
PHK
  PHK % activity remaining: 17%
[1]
  MLM % met/30 min: 40%

## Cc1cc(Cn2cc(-c3c(Cl)cnc4[nH]c(-c5cn(C)nc5C)nc34)cn2)no1 [Compound 14d]
CAMKKb
  CAMKKb % activity remaining: 42%
CK2
  CK2 % activity remaining: 57%
MARK1
  MARK1 % activity remaining: 38%
MST2
  MST2 % activity remaining: 80%
PDK1
  PDK1 % activity remaining: 49%
Lck
  Lck % activity remaining: 34%
PAK2
  PAK2 % activity remaining: 102%
GSK3b
  GSK3b % activity remaining: 47%
PKBa
  PKBa % activity remaining: 99%
NUAK1
  NUAK1 % activity remaining: 8%
TTK
  TTK % activity remaining: 42%
EPH-A2
  EPH-A2 % activity remaining: 57%
Src
  Src % activity remaining: 8%
MAPKAP-K2
  MAPKAP-K2 % activity remaining: 100%
p38b MAPK
  p38b MAPK % activity remaining: 91%
IRR
  IRR % activity remaining: 24%
HIPK1
  HIPK1 % activity remaining: 22%
ERK1
  ERK1 % activity remaining: 52%
DYRK2
  DYRK2 % activity remaining: 34%
BRSK1
  BRSK1 % activity remaining: 61%
MARK2
  MARK2 % activity remaining: 28%
PKBb
  PKBb % activity remaining: 94%
SGK1
  SGK1 % activity remaining: 65%
ROCK 2
  ROCK 2 % activity remaining: 44%
CSK
  CSK % activity remaining: 83%
MLK3
  MLK3 % activity remaining: 6%
TBK1
  TBK1 % activity remaining: 7%
EPH-B3
  EPH-B3 % activity remaining: 54%
JNK2
  JNK2 % activity remaining: 48%
ERK8
  ERK8 inhibition: ≥ 80%
  ERK8 % activity remaining: 1%
PHK
  PHK % activity remaining: 27%
[1]
  MLM % met/30 min: 35%
